Assay results: ChEMBL document CHEMBL5390226, “Synthesis and Staphylococcus aureus biofilm inhibitory activity of indolenine-substituted pyrazole and pyrimido[1,2-b]indazole derivatives” (Bioorg Med Chem, 2023)
≈ marks a conversion by molar mass, not a printed value. Calls of active or inactive are those of the source. The calls are words filed in the database; no cut-off is given here.

Experiments:
[1] = test system: Staphylococcus aureus; assay: Antibiofilm activity against methicillin-susceptible Staphylococcus aureus ATCC 29213 assessed as inhibition of biofilm formation incubated for 24 hrs by crystal violet staining based analysis; assay type: functional; settings: dose 1.56-100 µg/ml
[2] = test system: Staphylococcus aureus; assay: Antibiofilm activity against methicillin-resistant Staphylococcus aureus ATCC 33591 assessed as biofilm eradication incubated for 24 hrs by crystal violet staining based analysis; assay type: functional
[3] = test system: Staphylococcus aureus; assay: Antibiofilm activity against methicillin-susceptible Staphylococcus aureus ATCC 29213 assessed as biofilm eradication incubated for 24 hrs by crystal violet staining based analysis; assay type: functional
[4] = test system: Staphylococcus aureus; assay: Antibiofilm activity against methicillin-resistant Staphylococcus aureus ATCC 33591 assessed as inhibition of biofilm formation incubated for 24 hrs by crystal violet staining based analysis; assay type: functional; settings: dose 1.56-100 µg/ml
[5] = Cytotoxicity against human A549 cells assessed as inhibition of cell growth measured after 48 hrs by MTT assay; assay type: toxicity, cell-based
[6] = test system: Staphylococcus aureus; assay: Antibacterial activity against methicillin-susceptible Staphylococcus aureus ATCC 29213 assessed as bacterial growth inhibition incubated for 24 hrs by CLSI based microbroth dilution method; assay type: functional
[7] = test system: Staphylococcus aureus; assay: Antibacterial activity against methicillin-resistant Staphylococcus aureus ATCC ATCC 33591 assessed as planktonic growth inhibition at 25 to 50 ug/mL incubated for 24 hrs; assay type: functional, organism-based; settings: dose 25-50 µg/ml
[8] = test system: Staphylococcus aureus; assay: Antibacterial activity against methicillin-resistant Staphylococcus aureus ATCC 33591 assessed as bacterial growth inhibition incubated for 24 hrs by CLSI based microbroth dilution method; assay type: functional
[9] = test system: Staphylococcus aureus; assay: Antibiofilm activity against methicillin-susceptible Staphylococcus aureus ATCC 29213 assessed as disruption of biofilm incubated for 24 hrs by crystal violet staining based inverted microscopic analysis; assay type: functional, organism-based; settings: dose 1.56-12.5 µg/ml
[10] = test system: Staphylococcus aureus; assay: Antibiofilm activity against methicillin-resistant Staphylococcus aureus ATCC 33591 assessed as disruption of biofilm incubated for 24 hrs by crystal violet staining based inverted microscopic analysis; assay type: functional, organism-based; settings: dose 1.56-12.5 µg/ml
[11] = test system: Staphylococcus aureus; assay: Antibacterial activity against methicillin-resistant Staphylococcus aureus ATCC 33591 assessed as MBC to MIC ratio; assay type: functional
[12] = test system: Staphylococcus aureus; assay: Antibacterial activity against methicillin-susceptible Staphylococcus aureus ATCC 29213 assessed as planktonic growth inhibition at 25 to 50 ug/mL incubated for 24 hrs; assay type: functional, organism-based; settings: dose 25-50 µg/ml

| Structure (SMILES) | MBIC50 [1] | MBEC50 [3] | MBIC50 [4] | other results |
| --- | --- | --- | --- | --- |
| CC1(C)C(c2cnn(-c3ccc(C(=O)Nc4ccc(F)cc4)cc3)c2)=Nc2ccc3ccccc3c21 | >100 µg/mL | – | – | – |
| CC1(C)C(c2cnc3c4ccccc4nn3c2)=Nc2ccccc21 | >100 µg/mL | 100 µg/mL | 100 µg/mL | MBEC50 [2]: >100 µg/mL |
| CC1(C)C(c2cnn(-c3ccc(C(=O)O)cc3)c2)=Nc2ccc3ccccc3c21 | <=1.56 ug ml-1 | 12.5 µg/mL | 3.13 µg/mL | IC50 at 48 h [5]: > 100 µg/mL; MIC [6]: 25 µg/mL (≈ 65.5 µM); MBEC50 [2]: 6.25 µg/mL; inhibition [7]: Active; MIC [8]: 25 µg/mL (≈ 65.5 µM); Activity [9]: Dose-Dependent Effect; Activity [10]: Dose-Dependent Effect; Ratio [11]: >4; inhibition [1]: Dose-Dependent Effect; inhibition [12]: Active; inhibition [4]: Dose-Dependent Effect |
| CC1(C)C(c2cnn(-c3ccc(C(=O)NCc4cccnc4)cc3)c2)=Nc2ccccc21 | >100 µg/mL | – | – | – |
| CC1(C)C(c2cnc3c4ccc(Br)cc4nn3c2)=Nc2ccc3ccccc3c21 | >100 µg/mL | >100 µg/mL | – | – |
| CCOC(=O)c1ccc2c(c1)C(C)(C)C(c1cnc3c4ccc(Br)cc4nn3c1)=N2 | >100 µg/mL | >100 µg/mL | – | – |
| CCCCNC(=O)c1ccc(-n2cc(C3=Nc4ccccc4C3(C)C)cn2)cc1 | >100 µg/mL | – | – | – |
| COc1ccc2c(c1)C(C)(C)C(c1cnc3c4c(OC)cccc4nn3c1)=N2 | >100 µg/mL | >100 µg/mL | 25 µg/mL | – |
| CC1(C)C(c2cnn(-c3ccc(C(=O)NCCc4ccccc4)cc3)c2)=Nc2ccccc21 | >100 µg/mL | – | – | – |
| CCOC(=O)c1ccc2c(c1)C(C)(C)C(c1cnc3c4ccccc4nn3c1)=N2 | >100 µg/mL | >100 µg/mL | 100 µg/mL | – |
| COc1cccc2nn3cc(C4=Nc5ccc6ccccc6c5C4(C)C)cnc3c12 | >100 µg/mL | >100 µg/mL | – | MBEC50 [2]: 100 µg/mL |
| CC1(C)C(c2cnn(-c3ccc(C(=O)NC4CCCCC4)cc3)c2)=Nc2ccccc21 | >100 µg/mL | – | – | – |
| CC1(C)C(c2cnc3c4ccc(C(F)(F)F)cc4nn3c2)=Nc2ccccc21 | 100 µg/mL | >100 µg/mL | 12.5 µg/mL | – |
| CC1(C)C(c2cnn(-c3ccc(C(=O)Nc4ccc(Cl)cc4)cc3)c2)=Nc2ccc3ccccc3c21 | >100 µg/mL | – | – | – |
| COc1ccc2c(c1)C(C)(C)C(c1cnc3c4ccccc4nn3c1)=N2 | >100 µg/mL | >100 µg/mL | 50 µg/mL | – |
| CC1(C)C(c2cnn(-c3ccc(C(=O)Nc4ccc(Cl)cc4)cc3)c2)=Nc2ccccc21 | >100 µg/mL | – | – | – |
| CC1(C)C(c2cnn(-c3ccc(C(=O)NCc4ccc(F)cc4)cc3)c2)=Nc2ccccc21 | >100 µg/mL | – | – | – |
| Cc1ccc(CNC(=O)c2ccc(-n3cc(C4=Nc5ccccc5C4(C)C)cn3)cc2)cc1 | >100 µg/mL | – | – | – |
| Cc1ccc(NC(=O)c2ccc(-n3cc(C4=Nc5ccccc5C4(C)C)cn3)cc2)cc1 | >100 µg/mL | – | – | – |
| CC1(C)C(c2cnn(-c3ccc(C(=O)NCc4ccccc4)cc3)c2)=Nc2ccccc21 | >100 µg/mL | – | – | – |
| CC1(C)C(c2cnc3c4ccc(Br)cc4nn3c2)=Nc2ccccc21 | >100 µg/mL | >100 µg/mL | 100 µg/mL | – |
| COc1ccc2c(c1)C(C)(C)C(c1cnc3c4ccc(Br)cc4nn3c1)=N2 | >100 µg/mL | >100 µg/mL | – | – |
| COc1cccc2nn3cc(C4=Nc5c(ccc6ccccc56)C4(C)C)cnc3c12 | 12.5 µg/mL | >100 µg/mL | – | – |
| CC1(C)C(c2cnn(-c3ccc(C(=O)Nc4ccncc4)cc3)c2)=Nc2ccccc21 | >100 µg/mL | – | – | – |

| Structure (SMILES) | MBIC50 [1] | MBEC50 [3] | MBIC50 [4] | other results |
| --- | --- | --- | --- | --- |
| CC1(C)C(c2cnn(-c3ccc(C(=O)Nc4ccncc4)cc3)c2)=Nc2ccc3ccccc3c21 | >100 µg/mL | – | – | – |
| COc1cccc2nn3cc(C4=Nc5ccccc5C4(C)C)cnc3c12 | 50 µg/mL | >100 µg/mL | >100 µg/mL | – |
| Cc1ccccc1NC(=O)c1ccc(-n2cc(C3=Nc4ccccc4C3(C)C)cn2)cc1 | >100 µg/mL | – | – | – |
| CC1(C)C(c2cnc3c4ccccc4nn3c2)=Nc2c1ccc1ccccc21 | 25 µg/mL | >100 µg/mL | 6.25 µg/mL | – |
| CC1(C)C(c2cnn(-c3ccc(C(=O)NCc4ccc(F)cc4)cc3)c2)=Nc2ccc3ccccc3c21 | >100 µg/mL | – | – | – |
| CC1(C)C(c2cnn(-c3ccc(C(=O)NCCc4ccccc4)cc3)c2)=Nc2ccc3ccccc3c21 | >100 µg/mL | – | – | – |
| COc1ccc2c(c1)C(C)(C)C(c1cnn(-c3ccc(C(=O)O)cc3)c1)=N2 | 12.5 µg/mL | >100 µg/mL | 100 µg/mL | – |
| CC1(C)C(c2cnn(-c3ccc(C(=O)O)cc3)c2)=Nc2ccc(Cl)cc21 | 6.25 µg/mL | 12.5 µg/mL | – | IC50 at 48 h [5]: > 100 µg/mL; MBEC50 [2]: 50 µg/mL |
| Oc1cc(Cl)ccc1Oc1ccc(Cl)cc1Cl [TRICLOSAN] | <=1.56 ug ml-1 | 3.13 µg/mL | <=1.56 ug ml-1 | MBEC50 [2]: 6.25 µg/mL |
| COc1ccc2c(c1)C(C)(C)C(c1cnc3c4ccc(C(F)(F)F)cc4nn3c1)=N2 | 100 µg/mL | >100 µg/mL | – | MBEC50 [2]: 100 µg/mL |
| CCOC(=O)c1ccc2c(c1)C(C)(C)C(c1cnc3c4c(OC)cccc4nn3c1)=N2 | >100 µg/mL | >100 µg/mL | 12.5 µg/mL | – |
| CC1(C)C(c2cnn(-c3ccc(C(=O)Nc4ccc(F)cc4)cc3)c2)=Nc2ccccc21 | >100 µg/mL | – | – | – |
| CC1(C)C(c2cnc3c4ccc(C(F)(F)F)cc4nn3c2)=Nc2c1ccc1ccccc21 | >100 µg/mL | >100 µg/mL | 100 µg/mL | – |
| CCOC(=O)c1ccc2c(c1)C(C)(C)C(c1cnc3c4ccc(C(F)(F)F)cc4nn3c1)=N2 | 100 µg/mL | >100 µg/mL | – | MBEC50 [2]: 100 µg/mL |
| CN(C)c1ccccc1NC(=O)c1ccc(-n2cc(C3=Nc4ccccc4C3(C)C)cn2)cc1 | >100 µg/mL | – | – | – |
| CC1(C)C(c2cnn(-c3ccc(C(=O)O)cc3)c2)=Nc2ccccc21 | 6.25 µg/mL | >100 µg/mL | 50 µg/mL | – |
| CC1(C)C(c2cnn(-c3ccc(C(=O)Nc4ccccc4)cc3)c2)=Nc2ccccc21 | >100 µg/mL | – | – | – |
| CC1(C)C(c2cnc3c4ccccc4nn3c2)=Nc2ccc3ccccc3c21 | >100 µg/mL | >100 µg/mL | 50 µg/mL | – |
| CC1(C)C(c2cnn(-c3ccccc3)c2)=Nc2ccc(C(=O)O)cc21 | 12.5 µg/mL | >100 µg/mL | <=1.56 ug ml-1 | IC50 at 48 h [5]: > 100 µg/mL; MBEC50 [2]: 25 µg/mL |
| COc1ccc(NC(=O)c2ccc(-n3cc(C4=Nc5ccccc5C4(C)C)cn3)cc2)cc1 | >100 µg/mL | – | – | – |
| N=C(NCCCCCCNC(=N)NC(=N)Nc1ccc(Cl)cc1)NC(=N)Nc1ccc(Cl)cc1 [CHLORHEXIDINE] | 3.13 µg/mL | 12.5 µg/mL | <=1.56 ug ml-1 | MBEC50 [2]: 3.13 µg/mL |
| CC1(C)C(c2cnc3c4ccc(C(F)(F)F)cc4nn3c2)=Nc2ccc3ccccc3c21 | 50 µg/mL | >100 µg/mL | – | – |
| CC1(C)C(c2cnc3c4ccc(Br)cc4nn3c2)=Nc2c1ccc1ccccc21 | >100 µg/mL | >100 µg/mL | 50 µg/mL | – |
